The test system of test [1] is human melanoma cell lines. Nature of the test: response to palbociclib treatment in 48 melanoma cell lines. Format: cell-based. The text has this:
Melanoma, a malignancy originating in pigment-producing melanocytes, is generally resistant to conventional treatments such as radiotherapy or chemotherapy. Molecular targeted therapeutics against BRAF and MEK have shown marked efficacy for patients with metastatic melanoma. However these targeted therapies have a limited duration of response. […] Our main goal in this study was to evaluate the therapeutic potential of palbociclib in a large panel of human melanoma cell lines to identify potential biomarkers of sensitivity and resistance. Material and Methods: We evaluated the response palbociclib treatment in 48 melanoma cell lines. A comprehensive biomarker screen was performed using mutation and gene expression (Agilent) data. The mechanism of action of the drug, phospho-Rb and senescence, was investigated by western blot (WB) analysis. Effects on the cell cycle and apoptosis were study by flow cytometry.

The subject of test [2] is 17 gastric and 27 colon cancer cell lines. Put plainly: dose response in gastric and colon cancer cell line panels. It counts as cell-based. The settings on record: Homo sapiens; 14 of the 44 gastric and colon cancer cell lines tested; read-out: anti-proliferative activity (concentration). How it is done:
Methods: Panels of 17 gastric and 27 colon cancer cell lines were exposed in vitro to palbociclib over various concentrations to generate dose response curves. Analysis of variance (ANOVA) was used to identify differentially expressed genes between sensitive and resistant cell lines. Genes identified by ANOVA and effects of palbociclib on pRB were analyzed via western blot.

A further test has as its system colon cancer. The settings on record: patients; cited from earlier work.

pIC50: −log10 of the molar value. Where two headings read alike, the source gives them in different places.

On to `CC(=O)c1c(C)c2cnc(Nc3ccc(N4CCNCC4)cn3)nc2n(C2CCCC2)c1=O` [palbociclib], for which the pIC50 was 7.55 in test [1] (48 melanoma cell lines, read-out: IC50, lower end of range across melanoma cell lines); less than 6.00 in test [1] (48 melanoma cell lines, read-out: IC50, upper end of range across melanoma cell lines); greater than 6.82 in test [1] (subset (14/48) of melanoma cell lines, clinically achievable concentrations, read-out: IC50 of cell lines classified as sensitive); greater than 6.82 in test [2].
For the compound `CCN1CCN(Cc2ccc(Nc3ncc(F)c(-c4cc(F)c5nc(C)n(C(C)C)c5c4)n3)nc2)CC1` [LY2835219], the clinical benefit entry in the test with colon cancer is “beneficial in colon cancer”.

(Values after patent publication US20190292605A1, “Biomarkers of Response to Cyclin D-CDK4/6 Targeted Therapies in Cancer” (The Regents of the University of California, priority 2014, published 2019).)
